Reference: publication PMC10013565 (Journal of Enzyme Inhibition and Medicinal Chemistry, 2023)

Key:
hCA XII = hCA XII (Homo sapiens, UniProt O43570); experiment: stopped-flow CO2 hydrase assay, hCA XII; assay type: biochemical
hCA IX = hCA IX (Homo sapiens, UniProt Q16790); experiment: biochemical
hCA II = hCA II (Homo sapiens, UniProt P00918); experiment: stopped-flow CO2 hydrase assay, hCA II; assay type: biochemical
hCA I = hCA I (Homo sapiens, UniProt P00915); experiment: stopped-flow CO2 hydrase assay, hCA I; assay type: biochemical
Chain of hCA I (P00915 whole entry): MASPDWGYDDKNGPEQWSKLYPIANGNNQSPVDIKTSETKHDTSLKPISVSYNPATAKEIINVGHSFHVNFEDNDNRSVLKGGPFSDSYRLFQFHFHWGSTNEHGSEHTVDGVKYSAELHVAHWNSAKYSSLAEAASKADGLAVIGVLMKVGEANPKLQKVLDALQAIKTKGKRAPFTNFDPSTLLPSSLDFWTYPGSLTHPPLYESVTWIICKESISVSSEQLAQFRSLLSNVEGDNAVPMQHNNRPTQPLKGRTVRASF

Chain of hCA XII (O43570 25-354): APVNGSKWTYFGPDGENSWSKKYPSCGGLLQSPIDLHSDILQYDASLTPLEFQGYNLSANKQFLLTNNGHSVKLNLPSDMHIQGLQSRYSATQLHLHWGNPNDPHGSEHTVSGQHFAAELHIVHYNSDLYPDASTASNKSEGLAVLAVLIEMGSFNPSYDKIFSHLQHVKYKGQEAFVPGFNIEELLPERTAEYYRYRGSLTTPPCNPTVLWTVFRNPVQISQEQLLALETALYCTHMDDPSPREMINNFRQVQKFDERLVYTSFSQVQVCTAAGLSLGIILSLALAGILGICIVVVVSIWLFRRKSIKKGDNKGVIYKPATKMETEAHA

Row | Structure (SMILES) | Ki (hCA XII) [µM] | Ki (hCA IX) [µM] | Ki (hCA II) [µM] | Ki (hCA I) [µM]
1 | O=C(c1cc2ccccc2oc1=O)N1CCN(S(=O)(=O)c2ccc([N+](=O)[O-])cc2)CC1 [6a, 3–(4-((4-Nitrophenyl)sulphonyl)piperazine-1-carbonyl)-2H-chromen-2-one] | 9.1 | 7.1 | > 100 | > 100
2 | O=C(c1cc2ccccc2oc1=O)N1CCN(S(=O)(=O)c2cccs2)CC1 [6c, 3–(4-(Thiophen-2-ylsulfonyl)piperazine-1-carbonyl)-2H-chromen-2-one] | 66.7 |  | > 100 | > 100
3 | O=C(c1cc2ccccc2oc1=O)N1CCN(S(=O)(=O)c2ccc(Br)s2)CC1 [6d, 3–(4-((5-Bromothiophen-2-yl)sulphonyl)piperazine-1-carbonyl)-2H-chromen-2-one] | 9.8 | 5.56 | > 100 | > 100
4 | CCS(=O)(=O)N1CCN(C(=O)c2cc3ccccc3oc2=O)CC1 [6e, 3–(4-(Ethylsulfonyl)piperazine-1-carbonyl)-2H-chromen-2-one] | 26.1 | 37.8 | > 100 | > 100
5 | O=C(c1cc2ccccc2oc1=O)N1CCN(C(=S)Nc2ccccc2Cl)CC1 [7a, N-(2-chlorophenyl)-4–(2-oxo-2H-chromene-3-carbonyl)piperazine-1-carbothioamide] | 47.8 | 72 | > 100 | > 100
6 | O=C(c1cc2ccccc2oc1=O)N1CCN(C(=S)Nc2ccc(Cl)cc2)CC1 [7b, N-(4-chlorophenyl)-4–(2-oxo-2H-chromene-3-carbonyl)piperazine-1-carbothioamide] | 8 | 9.2 | > 100 | > 100
7 | O=C(c1cc2ccccc2oc1=O)N1CCN(C(=S)Nc2ccccc2)CC1 [7c, 4–(2-Oxo-2H-chromene-3-carbonyl)-N-phenylpiperazine-1-carbothioamide] | 31.8 |  | > 100 | > 100

More lines, now with the values ahead:

Row | Ki (hCA XII) [µM] | Ki (hCA IX) [µM] | Ki (hCA II) [µM] | Ki (hCA I) [µM] | Structure (SMILES)
8 | 86.6 | > 100 | > 100 | > 100 | O=C(c1cc2ccc(O)cc2oc1=O)N1CCN(S(=O)(=O)c2ccc(F)cc2)CC1 [12a, 3–(4-((4-Fluorophenyl)sulphonyl)piperazine-1-carbonyl)-7-hydroxy-2H-chromen-2-one]
9 | 9.3 | > 100 | > 100 | > 100 | O=C(c1cc2ccc(O)cc2oc1=O)N1CCN(S(=O)(=O)c2ccccc2)CC1 [12b, 7-Hydroxy-3–(4-(phenylsulfonyl)piperazine-1-carbonyl)-2H-chromen-2-one]
10 | > 100 | 50.7 | > 100 | > 100 | O=C(c1cc2ccc(O)cc2oc1=O)N1CCN(S(=O)(=O)c2ccc(Br)s2)CC1 [12c, 3–(4-((5-Bromothiophen-2-yl)sulphonyl)piperazine-1-carbonyl)-7-hydroxy-2H-chromen-2-one]
11 | 92.2 | > 100 | > 100 | > 100 | O=C(c1c(O)c2ccccc2oc1=O)N1CCN(S(=O)(=O)c2ccc(F)cc2)CC1 [16a, 3–(4-((4-Fluorophenyl)sulphonyl)piperazine-1-carbonyl)-4-hydroxy-2H-chromen-2-one]
12 | 9.5 | 90.9 | > 100 | > 100 | O=C(c1c(O)c2ccccc2oc1=O)N1CCN(S(=O)(=O)c2ccccc2)CC1 [16b, 4-Hydroxy-3–(4-(phenylsulfonyl)piperazine-1-carbonyl)-2H-chromen-2-one]
13 | 36.5 | > 100 | > 100 | > 100 | O=C(c1c(O)c2ccccc2oc1=O)N1CCN(S(=O)(=O)c2ccc(Br)s2)CC1 [16c, 3–(4-((5-Bromothiophen-2-yl)sulphonyl)piperazine-1-carbonyl)-4-hydroxy-2H-chromene-2-one]
14 |  | 62.1 | > 100 | > 100 | C/C(=N\OCc1ccc(F)cc1)c1cc2ccccc2oc1=O [20a, (E)-3–(1-(((4-fluorobenzyl)oxy)imino)ethyl)-2H-chromen-2-one]
15 | 9.4 | 8.9 | > 100 | > 100 | C/C(=N\OCc1ccc(Cl)cc1)c1cc2ccccc2oc1=O [20b, (E)-3–(1-(((4-chlorobenzyl)oxy)imino)ethyl)-2H-chromen-2-one]
